target: Active human KLK7 (SCCE) (Homo sapiens (Human), UniProt P49862); assay: KLK7 Inhibitor Test; type: biochemical; conditions: substrate MeO-Suc-Arg-Pro-Tyr-pNA, pH 7.2, 37° C., absorbance at 405 nm
Protocol: KLK7 Inhibitor Test Substrate:(MeO-Suc-[…]), acetate salt, Peptide international, lot #906841, previously named S-2586 Enzyme: […] Buffer: 10 mM NaPhospate, 0.5 M NaCl, pH 7.2 […] 10 μl of substance in DMSO was added to wells giving final concentrations of 20 μ[…], and 0.15625 μM. 40 μl of active KLK7 (SCCE) (diluted to 12.5 μg/ml in activity buffer) was added all wells except blank to which activity buffer was added. […] The mean value V of each sample was calculated (n=2 for the substances and n=4 for the control). From the values of V the % of total activity was calculated as (Vinhibitor/Vcontrol (no inhibitor))×100. Plotting and calculation was then done in originPro. % of total activity (y) was plotted vs. log [inhibitor] (log x) and a function of dose response y=A1+(A2-A1)/(1+10^((LOG(x0)-x)*p)) where A1=Bottom platue, A2=Top platue, x0=EC50 and p=Hill slope was fitted to the curve. […] The IC50 values were used to identify KLK7 inhibitors according to the invention.

Sequence of Active human KLK7 (SCCE) (P49862 30-253): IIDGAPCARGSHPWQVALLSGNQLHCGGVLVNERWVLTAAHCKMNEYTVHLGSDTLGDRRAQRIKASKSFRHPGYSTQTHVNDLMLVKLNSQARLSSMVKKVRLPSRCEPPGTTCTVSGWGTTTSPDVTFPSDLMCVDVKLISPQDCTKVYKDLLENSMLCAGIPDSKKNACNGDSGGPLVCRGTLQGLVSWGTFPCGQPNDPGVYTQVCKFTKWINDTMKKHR

| Structure (SMILES) | IC50 [nM] |
| --- | --- |
| Cc1cc(NC(=O)C(OC(=O)C(c2ccccc2)c2ccccc2)c2ccccc2)no1 (stereo not drawn) [Compound 54, [2-[(5-methylisoxazol-3-yl)amino]-2-oxo-1-phenyl-ethyl] 2,2-diphenylacetate] | 1100 |
| O=C(COC(=O)CCC1CCCC1)Nc1ccccc1 [Compound 55] | 1110 |
| COc1ccc(CC(=O)OC(C(=O)Nc2ccc(F)cc2)c2ccccc2)cc1 (stereo not drawn) [Compound 56] | 1170 |
| COc1ccc(NC(=O)C(C)OC(=O)C(c2ccccc2)c2ccccc2)cc1 (stereo not drawn) [Compound 57] | 1180 |
| Cc1cc(NC(=O)COC(=O)CCC2CCCC2)no1 [Compound 58] | 1200 |
| COc1ccc(NC(=O)COC(=O)C(NC(=O)c2ccccc2)c2ccccc2)cc1 (stereo not drawn) [Compound 59, [2-(4-methoxyanilino)-2-oxo-ethyl] 2-benzamido-2-phenyl-acetate] | 1230 |
| Cc1cc(NC(=O)COC(=O)C(NC(=O)c2ccccc2)c2ccccc2)no1 (stereo not drawn) [Compound 60, [2-[(5-methylisoxazol-3-yl)amino]-2-oxo-ethyl] 2-benzamido-2-phenyl-acetate] | 1470 |
| O=C(COC(=O)C(NC(=O)c1ccccc1)c1ccccc1)Nc1ccc(F)cc1 (stereo not drawn) [Compound 61, [2-(4-fluoroanilino)-2-oxo-ethyl] 2-benzamido-2-phenyl-acetate] | 1510 |
| O=C(COC(=O)C(NC(=O)c1ccccc1)c1ccccc1)Nc1ccccc1 (stereo not drawn) [Compound 62, (2-anilino-2-oxo-ethyl) 2-benzamido-2-phenyl-acetate] | 1560 |
| CC(OC(=O)C(c1ccccc1)c1ccccc1)C(=O)Nc1ccc(F)cc1 (stereo not drawn) [Compound 63] | 1620 |
| CCC(OC(=O)C(NC(=O)c1ccccc1)c1ccccc1)C(=O)Nc1ccc(OC)cc1 (stereo not drawn) [Compound 64, 1-[(4-methoxyphenyl)carbamoyl]propyl 2-benzamido-2-phenyl-acetate] | 1700 |
| CCC(OC(=O)C(NC(=O)c1ccccc1)c1ccccc1)C(=O)Nc1ccc(F)cc1 (stereo not drawn) [Compound 65, 1-[(4-fluorophenyl)carbamoyl]propyl 2-benzamido-2-phenyl-acetate] | 1790 |
| CC(OC(=O)C(NC(=O)c1ccccc1)c1ccccc1)C(=O)Nc1ccccc1 (stereo not drawn) [Compound 66, (2-anilino-1-methyl-2-oxo-ethyl) 2-benzamido-2-phenyl-acetate] | 1850 |
| COc1ccc(CC(=O)OCC(=O)Nc2ccc(F)cc2)cc1 [Compound 67] | 2280 |

Next, values leading:

| IC50 [nM] | Structure (SMILES) |
| --- | --- |
| 2310 | COc1ccc(CC(=O)OCC(=O)Nc2ccc(OC)cc2)cc1 [Compound 68] |
| 2700 | Cc1cc(NC(=O)COC(=O)CCC2CCCC2)no1 [Compound 69] |
| 2700 | Cc1cc(NC(=O)C(OC(=O)Cc2ccc(Cl)cc2)C(C)C)no1 (stereo not drawn) [Compound 70, [2-methyl-1-[(5-methylisoxazol-3-yl)carbamoyl]propyl] 2-(4-chlorophenyl)acetate] |
| 2760 | COc1ccc(NC(=O)C(C)OC(=O)C(NC(=O)c2ccccc2)c2ccccc2)cc1 (stereo not drawn) [Compound 71, [2-(4-methoxyanilino)-1-methyl-2-oxo-ethyl] 2-benzamido-2-phenyl-acetate] |
| 2780 | Cc1cc(NC(=O)C(OC(=O)CCC2CCCC2)C(C)C)no1 (stereo not drawn) [Compound 72, [2-methyl-1-[(5-methylisoxazol-3-yl)carbamoyl]propyl] 3-cyclopentylpropanoate] |
| 2900 | Cc1cc(NC(=O)COC(=O)Cc2ccc(Cl)cc2)no1 [Compound 73] |
| 3050 | COc1ccc(CC(=O)OCC(=O)Nc2cc(C)on2)cc1 [Compound 74] |
| 3260 | Cc1cc(NC(=O)C(OC(=O)C(NC(=O)c2ccccc2)c2ccccc2)C(C)C)no1 (stereo not drawn) [Compound 75, [2-methyl-1-[(5-methylisoxazol-3-yl)carbamoyl]propyl] 2-benzamido-2-phenyl-acetate] |
| 3340 | O=C(NC(C(=O)OC(C(=O)Nc1ccccc1)c1ccccc1)c1ccccc1)c1ccccc1 (stereo not drawn) [Compound 76, (2-anilino-2-oxo-1-phenyl-ethyl) 2-benzamido-2-phenyl-acetate] |
| 3890 | COc1ccc(CC(=O)OCC(=O)Nc2ccccc2)cc1 [Compound 77] |

— patent US9744148B2, “Kallikrein 7 inhibitors” (SIXERA PHARMA AB, priority 2014, dated 2017)
